Source: patent US9949479B2 (priority 2015, dated 2018)
Values joined by “and” are separate entries in the source; they are usually repeats but may differ in a detail not shown here. Equal entries are not always repeated. Where two headings read alike, the source gives them in different places.

How the values were obtained:
Tri5 gene = format: cell-based, Fusarium asiaticum
powdery mildew fungus = format: in vivo; conditions: seed treatment; dose as in E133
leaf blight [1] = format: in vivo; conditions: dose as in E145
leaf blight [2] = format: in vivo; conditions: dose as in E162
powdery mildew = format: in vivo; conditions: dose as in E162
rust [3] = format: in vivo; conditions: dose as in E162
[4] = format: in vivo, wheat; conditions: dose as in E162
wheat scab [5] = format: in vivo, Fusarium spp.
leaf blight [6] = format: in vivo
[7] = format: in vivo, wheat
leaf blight [8] = format: in vivo; remark: listed apart in the source
rust [9] = format: in vivo
rust [10] = format: in vivo; remark: listed apart in the source
[11] = tested on: DON toxin synthesis capability of thalli; design: species or system Fusarium spp.; conditions: in vivo
wheat scab [12] = format: in vivo, Fusarium spp.; remark: listed apart in the source
[13] = format: in vivo, wheat; conditions: vs control; dose as in E145
wheat scab [14] = format: in vivo, Fusarium spp.; remark: listed apart in the source
[15] = Serial 11: jinggangmycin 36 g ai./mu alone
[16] = Serial 12: jinggangmycin 18 g ai./mu alone
[17] = Serial 13: jinggangmycin 15 g ai./mu alone
[18] = Serial 14: jinggangmycin 7.5 g ai./mu alone
[19] = Serial 15: jinggangmycin 5 g ai./mu alone
[20] = Serial 16: jinggangmycin 2.5 g ai./mu alone
[21] = Serial 17: jinggangmycin 3 g ai./mu alone
[22] = Serial 18: jinggangmycin 1.5 g ai./mu alone
[23] = Serial 19: jinggangmycin 1 g ai./mu alone
[24] = Serial 20: jinggangmycin 0.5 g ai./mu alone
[25] = Serial 21: metconazole 20 g ai./mu alone
[26] = Serial 22: metconazole 18 g ai./mu alone
[27] = Serial 23: metconazole 16 g ai./mu alone
[28] = Serial 24: metconazole 10 g ai./mu alone
[29] = Serial 25: metconazole 9 g ai./mu alone
[30] = Serial 26: metconazole 8 g ai./mu alone
[31] = Serial 27: metconazole 6 g ai./mu alone
[32] = Serial 28: metconazole 3 g ai./mu alone

OCC1=C[C@H](NC2C[C@H](CO)[C@@H](OC3O[C@H](CO)[C@@H](O)[C@H](O)[C@H]3O)[C@H](O)[C@H]2O)[C@H](O)[C@@H](O)[C@@H]1O (stereo partly shown) [Jinggangmycin A, jinggangmycin A]
Rate of Inhibition on Relative Expression Level of Tri5 Gene (Tri5 gene): 66% and 84% and 87% and 90% and 59% | Incidence Prevention Effect % Powdery Mildew (powdery mildew fungus): 0% and 6.5% | Disease Index Prevention Effect % Leaf Blight (leaf blight [1]): 8.3% and 7.8% and 0% | Disease Index Prevention Effect % Leaf Blight (leaf blight [2]): 8.5% and 7.9% and 0% | Disease Index Prevention Effect % Powdery Mildew (powdery mildew): 7.3% and 4.4% and 4.5% and 0% | Disease Index Prevention Effect % Rust (rust [3]): 5.1% and 3.6% and 0% | Grain Toxin Content [4]: 2.89 μg/g of kernels and 3.24 μg/g of kernels and 3.86 μg/g of kernels and 4.20 μg/g of kernels and 4.77 μg/g of kernels | Disease Index Prevention Effect % Head Blight (wheat scab [5]; [15]): 31.6% | Disease Index Prevention Effect % Head Blight (wheat scab [5]; [16]): 28.9% | Disease Index Prevention Effect % Head Blight (wheat scab [5]; [17]): 24.3% | Disease Index Prevention Effect % Head Blight (wheat scab [5]; [18]): 16.9% | Disease Index Prevention Effect % Head Blight (wheat scab [5]; [19]): 5.2% | Disease Index Prevention Effect % Head Blight (wheat scab [5]; [20]): 0% | Disease Index Prevention Effect % Head Blight (wheat scab [5]; [21]): 0% | Disease Index Prevention Effect % Head Blight (wheat scab [5]; [22]): 0% | Disease Index Prevention Effect % Head Blight (wheat scab [5]; [23]): 0% | Disease Index Prevention Effect % Head Blight (wheat scab [5]; [24]): 0% | Disease Index Prevention Effect % Leaf Blight (leaf blight [6]; [15]): 5.8% | Disease Index Prevention Effect % Leaf Blight (leaf blight [6]; [16]): 5.0% | Disease Index Prevention Effect % Leaf Blight (leaf blight [6]; [17]): 4.6% | Disease Index Prevention Effect % Leaf Blight (leaf blight [6]; [18]): 0% | Disease Index Prevention Effect % Leaf Blight (leaf blight [6]; [19]): 0% | Disease Index Prevention Effect % Leaf Blight (leaf blight [6]; [20]): 0% | Disease Index Prevention Effect % Leaf Blight (leaf blight [6]; [21]): 0% | Disease Index Prevention Effect % Leaf Blight (leaf blight [6]; [22]): 0% | Disease Index Prevention Effect % Leaf Blight (leaf blight [6]; [23]): 0% | Disease Index Prevention Effect % Leaf Blight (leaf blight [6]; [24]): 0% | Grain Toxin Content (mg of DON/Kg of grain) [7, 15]: 2.61 mg of DON/Kg of grain | Rate of Decrease in Toxin Content in Grains (%) [7, 15]: 59.6% | Grain Toxin Content (mg of DON/Kg of grain) [7, 16]: 2.86 mg of DON/Kg of grain | Rate of Decrease in Toxin Content in Grains (%) [7, 16]: 55.7% | Grain Toxin Content (mg of DON/Kg of grain) [7, 17]: 2.94 mg of DON/Kg of grain | Rate of Decrease in Toxin Content in Grains (%) [7, 17]: 54.5% | Grain Toxin Content (mg of DON/Kg of grain) [7, 18]: 3.42 mg of DON/Kg of grain | Rate of Decrease in Toxin Content in Grains (%) [7, 18]: 47.1% | Grain Toxin Content (mg of DON/Kg of grain) [7, 19]: 3.86 mg of DON/Kg of grain | Rate of Decrease in Toxin Content in Grains (%) [7, 19]: 40.2% | Grain Toxin Content (mg of DON/Kg of grain) [7, 20]: 3.92 mg of DON/Kg of grain | Rate of Decrease in Toxin Content in Grains (%) [7, 20]: 39.3% | Grain Toxin Content (mg of DON/Kg of grain) [7, 21]: 3.96 mg of DON/Kg of grain | Rate of Decrease in Toxin Content in Grains (%) [7, 21]: 38.7% | Grain Toxin Content (mg of DON/Kg of grain) [7, 22]: 4.82 mg of DON/Kg of grain | Rate of Decrease in Toxin Content in Grains (%) [7, 22]: 25.4% | Grain Toxin Content (mg of DON/Kg of grain) [7, 23]: 5.80 mg of DON/Kg of grain | Rate of Decrease in Toxin Content in Grains (%) [7, 23]: 10.2% | Grain Toxin Content (mg of DON/Kg of grain) [7, 24]: 5.86 mg of DON/Kg of grain | Rate of Decrease in Toxin Content in Grains (%) [7, 24]: 9.3% | Disease Index Prevention Effect % Leaf Blight (leaf blight [8]; Serial 5: preparation 100 g/mu, jinggangmycin 20 g ai./mu alone): 8.6% | Disease Index Prevention Effect % Leaf Blight (leaf blight [8]; Serial 6: preparation 80 g/mu, jinggangmycin 16 g ai./mu alone): 8.8% | Disease Index Prevention Effect % Leaf Blight (leaf blight [8]; Serial 7: preparation 40 g/mu, jinggangmycin 8 g ai./mu alone): 5.8% | Disease Index Prevention Effect % Leaf Blight (leaf blight [8]; Serial 8: preparation 20 g/mu, jinggangmycin 4 g ai./mu alone): 0% | Disease Index Prevention Effect % Rust (rust [9]; Serial 5: preparation 50 g/mu, jinggangmycin 10 g ai./mu alone): 6.8% | Disease Index Prevention Effect % Rust (rust [9]; Serial 6: preparation 37.5 g/mu, jinggangmycin 7.5 g ai./mu alone): 6.5% | Disease Index Prevention Effect % Rust (rust [9]; Serial 7: preparation 15 g/mu, jinggangmycin 3 g ai./mu alone): 0% | Disease Index Prevention Effect % Rust (rust [10]; Serial 5: preparation 100 g/mu, jinggangmycin 20, metconazole 0 g ai./mu): 6.5%

CC1(C)CCC(Cc2ccc(Cl)cc2)C1(O)Cn1cncn1 (stereo not shown) [Metconazole]
Incidence Prevention Effect % Powdery Mildew (powdery mildew fungus): 75.0% and 68.5% and 61.0% and 40.0% | DON Synthesis Capability [11]: 20.16 and 19.80 and 19.96 and 19.54 and 19.20 and 19.38 | Theoretical Prevention Effect of Mixed Agent on Head Blight (wheat scab [12]; Abbott method, dose as in E145): 65.8 and 61.3 and 48.4 and 39.6 | Disease Index Prevention Effect % Head Blight (wheat scab [12]; sprayed twice, g ai. agent/mu, Jinggangmycin+Metconazole by row: r16 1+15, r17 3+10, r18 5+5, r19 5+10, r20 5+15, r21 10+3, r22 10+10, r23 10+15, r24 50+3, r25 50+10, r26 50+15, r27 100+5, r28 100+10, Jinggangmycin alone r29 100, r30 50, r31 10, r32 5, r33 3, r34 1, Metconazole alone r35 15, r36 10, r37 5, r38 3, r39 Carbendazim 40): 65.8% and 61.3% and 48.4% and 39.6% | DON Reduction Percentage (%) [13]: 88.4% and 79.9% and 71.4% and 66.6% | Theoretical Prevention Effect on Head Blight % (wheat scab [14]; Abbott method, dose as in E162): 66.7% and 61.8% and 40.9% and 33.6% | Disease Index Prevention Effect % Head Blight (wheat scab [14]; tank mixture sprayed twice, g ai. agent/mu, Jinggangmycin+Metconazole by row: r11 3+15, r12 5+10, r13 5+5, r14 10+5, r15 50+3, r16 100+3, Jinggangmycin alone r17 100, r18 50, r19 10, r20 5, r21 3, Metconazole alone r22 15, r23 10, r24 5, r25 3, r26 Polyketone 57): 66.7% and 61.8% and 50.9% and 33.6% | Grain Toxin Content [4]: 2.01 μg/g of kernels and 2.24 μg/g of kernels and 2.38 μg/g of kernels and 2.94 μg/g of kernels | Disease Index Prevention Effect % Head Blight (wheat scab [5]; [25]): 75.1% | Disease Index Prevention Effect % Head Blight (wheat scab [5]; [26]): 74.9% | Disease Index Prevention Effect % Head Blight (wheat scab [5]; [27]): 73.2% | Disease Index Prevention Effect % Head Blight (wheat scab [5]; [28]): 70.1% | Disease Index Prevention Effect % Head Blight (wheat scab [5]; [29]): 67.2% | Disease Index Prevention Effect % Head Blight (wheat scab [5]; [30]): 65.1% | Disease Index Prevention Effect % Head Blight (wheat scab [5]; [31]): 54.8% | Disease Index Prevention Effect % Head Blight (wheat scab [5]; [32]): 28.3% | Disease Index Prevention Effect % Leaf Blight (leaf blight [6]; [25]): 80.5% | Disease Index Prevention Effect % Leaf Blight (leaf blight [6]; [26]): 80.2% | Disease Index Prevention Effect % Leaf Blight (leaf blight [6]; [27]): 79.6% | Disease Index Prevention Effect % Leaf Blight (leaf blight [6]; [28]): 75.3% | Disease Index Prevention Effect % Leaf Blight (leaf blight [6]; [29]): 75.0% | Disease Index Prevention Effect % Leaf Blight (leaf blight [6]; [30]): 74.3% | Disease Index Prevention Effect % Leaf Blight (leaf blight [6]; [31]): 70.2% | Disease Index Prevention Effect % Leaf Blight (leaf blight [6]; [32]): 28.1% | Grain Toxin Content (mg of DON/Kg of grain) [7, 25]: 1.11 mg of DON/Kg of grain | Rate of Decrease in Toxin Content in Grains (%) [7, 25]: 82.8% | Grain Toxin Content (mg of DON/Kg of grain) [7, 26]: 0.99 mg of DON/Kg of grain | Rate of Decrease in Toxin Content in Grains (%) [7, 26]: 84.7% | Grain Toxin Content (mg of DON/Kg of grain) [7, 27]: 1.08 mg of DON/Kg of grain | Rate of Decrease in Toxin Content in Grains (%) [7, 27]: 83.3% | Grain Toxin Content (mg of DON/Kg of grain) [7, 28]: 1.34 mg of DON/Kg of grain | Rate of Decrease in Toxin Content in Grains (%) [7, 28]: 79.3% | Grain Toxin Content (mg of DON/Kg of grain) [7, 29]: 1.56 mg of DON/Kg of grain | Rate of Decrease in Toxin Content in Grains (%) [7, 29]: 75.9% | Grain Toxin Content (mg of DON/Kg of grain) [7, 30]: 1.61 mg of DON/Kg of grain | Rate of Decrease in Toxin Content in Grains (%) [7, 30]: 75.1% | Grain Toxin Content (mg of DON/Kg of grain) [7, 31]: 1.89 mg of DON/Kg of grain | Rate of Decrease in Toxin Content in Grains (%) [7, 31]: 70.7% | Grain Toxin Content (mg of DON/Kg of grain) [7, 32]: 3.22 mg of DON/Kg of grain | Rate of Decrease in Toxin Content in Grains (%) [7, 32]: 50.2% | Disease Index Prevention Effect % Leaf Blight (leaf blight [8]; Serial 9: preparation 100 g/mu, metconazole 20 g ai./mu alone): 72.8% | Disease Index Prevention Effect % Leaf Blight (leaf blight [8]; Serial 10: preparation 80 g/mu, metconazole 16 g ai./mu alone): 70.6% | Disease Index Prevention Effect % Leaf Blight (leaf blight [8]; Serial 11: preparation 40 g/mu, metconazole 8 g ai./mu alone): 68.3% | Disease Index Prevention Effect % Leaf Blight (leaf blight [8]; Serial 12: preparation 20 g/mu, metconazole 4 g ai./mu alone): 50.8% | Disease Index Prevention Effect % Rust (rust [9]; Serial 8: preparation 50 g/mu, metconazole 10 g ai./mu alone): 84.4% | Disease Index Prevention Effect % Rust (rust [9]; Serial 9: preparation 37.5 g/mu, metconazole 7.5 g ai./mu alone): 77.3% | Disease Index Prevention Effect % Rust (rust [9]; Serial 10: preparation 15 g/mu, metconazole 3 g ai./mu alone): 70.6% | Disease Index Prevention Effect % Rust (rust [10]; Serial 6: preparation 100 g/mu, jinggangmycin 0, metconazole 20 g ai./mu): 100%
